In US6362369B1, “Phthalic acid diamide derivatives fluorine-containing aniline compounds as starting material, agricultural and horticultural insecticides, and a method for application of the insecticides” (Nihon Nohyaku Co., Ltd., priority 1997, dated 2002):

Columns and labels:
Type in all cases: in vivo
[1] = system: diamondback moth (Plutella xylostella); assay: Insecticidal effect on diamondback moth (Test Example 1); settings: diamondback moth; mortality judged by criterion of Test Example 1
In short: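 Oviposition by adults on Chinese cabbage seedling; immersion; air-dry; 25° C room. Count of hatched larvae at day 6 post-immersion → mortality → effect graded by criterion. Triplicate, 10 insects/group.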

[2] = system: common cutworm (Spodoptera Litura); assay: Insecticidal effect on common cutworm (Test Example 2); settings: common cutworm second-instar larvae; cabbage leaf immersed, 500 ppm; eight days after inoculation; 25° C.
In short: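 After the treated material air-dries, it goes into a dish, second-instar larvae are added, and the dish is closed. Incubation runs at 25° C. On day eight, dead and living larvae are scored, and the calculated mortality is rated on an effect scale.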

[3] = system: rice leafroller (Cnaphalocrocis medinalis); assay: Insecticidal effect on rice leafroller (Test Example 3); settings: rice leafroller third-instar larvae; rice lamina immersed, 500 ppm; four days after inoculation; 25° C., humidity 70%
In short: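 Insecticidal effect is judged by a predefined criterion from dead/alive counts four days after infesting air-dried lamina with third-instar larvae, kept on moistened filter paper at 25° C, 70% humidity.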

| SMILES | Insecticidal effect, Test Example 1 [1] | Insecticidal effect, Test Example 2 [2] | Insecticidal effect, Test Example 3 [3] |
| --- | --- | --- | --- |
| Cc1cc(OC(F)F)ccc1NC(=O)c1ccc(I)cc1C(=O)NC(C)C [compound 1204] | A (100) | A (100) | A (100) |
| Cc1cc(OC(F)(F)C(F)F)ccc1NC(=O)c1cccc(C(F)(F)F)c1C(=O)NC(C)C [compound 1206] | A (100) | A (100) | A (100) |
| Cc1cc(C(F)(C(F)(F)F)C(F)(F)F)ccc1NC(=O)c1cccc(C(F)(F)F)c1C(=O)NC(C)C [compound 1207] | A (100) | A (100) | A (100) |
| CCc1cc(OC(F)(F)F)ccc1NC(=O)c1cccc(Cl)c1C(=O)NC(C)C [compound 1209] | A (100) | D (79-50) | A (100) |
| CCc1cc(OC(F)(F)F)ccc1NC(=O)c1cccc(I)c1C(=O)NC(C)C [compound 1210] | A (100) | A (100) | A (100) |
| CCc1cc(OC(F)(F)F)ccc1NC(=O)c1cccc(I)c1C(=O)NC(C)(C)C [compound 1211] | A (100) | A (100) | A (100) |
| CCc1cc(OC(F)(F)F)ccc1NC(=O)c1cccc(I)c1C(=O)N(CC)CC [compound 1212] | A (100) | A (100) | A (100) |
| Cc1cc(OC(F)(F)F)ccc1NC(=O)c1ccc(Cl)c(Cl)c1C(=O)NC(C)C [compound 1221] | A (100) | A (100) | A (100) |
| Cc1cc(C(F)(F)C(F)(F)F)ccc1NC(=O)c1ccc(Cl)c(Cl)c1C(=O)NC(C)C [compound 1222, 3,4-dichloro-N^1-(4-pentafluoroethyl-2-methylphenyl)-N^2-isopropylphthalic acid diamide] | A (100) | A (100) | A (100) |
| Cc1cc(C(F)(C(F)(F)F)C(F)(F)F)ccc1NC(=O)c1ccc(Cl)c(Cl)c1C(=O)NC(C)C [compound 1223] | A (100) | A (100) | A (100) |
| Cc1cc(OC(F)(F)F)ccc1NC(=O)c1ccc(F)c(Cl)c1C(=O)NC(C)C [compound 1227] | A (100) | A (100) | A (100) |
| Cc1cc(C(F)(F)C(F)(F)F)ccc1NC(=O)c1ccc(F)c(Cl)c1C(=O)NC(C)C [compound 1228] | A (100) | A (100) | A (100) |
| Cc1cc(C(F)(C(F)(F)F)C(F)(F)F)ccc1NC(=O)c1ccc(F)c(Cl)c1C(=O)NC(C)C [compound 1229] | A (100) | A (100) | A (100) |
| Cc1cc(OC(F)(F)F)ccc1NC(=O)c1cccc(C(F)(F)F)c1C(=O)NC(C)(C)C [compound 1230] | A (100) | A (100) | A (100) |
| Cc1cc(C(F)(F)C(F)(F)F)ccc1NC(=O)c1cccc(C(F)(F)F)c1C(=O)NC(C)(C)C [compound 1231] | A (100) | A (100) | A (100) |
| Cc1cc(C(F)(C(F)(F)F)C(F)(F)F)ccc1NC(=O)c1cccc(C(F)(F)F)c1C(=O)NC(C)(C)C [compound 1232] | A (100) | A (100) | A (100) |
| Cc1cc(OC(F)(F)F)ccc1NC(=O)c1ccc(I)cc1C(=O)NC(C)C [compound 1246] | A (100) | A (100) | A (100) |
| Cc1cc(OC(F)(F)C(F)F)ccc1NC(=O)c1ccc(I)cc1C(=O)NC(C)C [compound 1248] | A (100) | A (100) | A (100) |
| Cc1cc(C(F)(C(F)(F)F)C(F)(F)F)ccc1NC(=O)c1ccc(I)cc1C(=O)NC(C)C [compound 1250] | A (100) | A (100) | A (100) |
| Cc1cc(C(F)(C(F)(F)F)C(F)(F)F)ccc1NC(=O)c1cc(I)ccc1C(=O)NC(C)C [compound 1251] | A (100) | A (100) | A (100) |

| SMILES | Insecticidal effect, Test Example 1 [1] | Insecticidal effect, Test Example 2 [2] | Insecticidal effect, Test Example 3 [3] |
| --- | --- | --- | --- |
| Cc1cc(C(F)(C(F)(F)F)C(F)(F)F)ccc1NC(=O)c1ccc(F)c(Cl)c1C(=O)NC(C)(C)C [compound 1263] | A (100) | A (100) | A (100) |
| CCN(CC)C(=O)c1c(C(=O)Nc2ccc(C(F)(C(F)(F)F)C(F)(F)F)cc2C)ccc(F)c1Cl [compound 1264] | A (100) | A (100) | A (100) |
| Cc1cc(C(F)(F)C(F)(F)F)ccc1NC(=O)c1ccc(Cl)cc1C(=O)NC(C)C [compound 1277] | A (100) | A (100) | A (100) |
| Cc1cc(C(F)(F)C(F)(F)F)ccc1NC(=O)c1ccc(Cl)cc1C(=O)NC(C)(C)C [compound 1278] | A (100) | A (100) | A (100) |
| CCN(CC)C(=O)c1cc(Cl)ccc1C(=O)Nc1ccc(C(F)(F)C(F)(F)F)cc1C [compound 1280] | A (100) | A (100) | A (100) |
| Cc1cc(OC(F)(F)F)ccc1NC(=O)c1cc(F)c(F)cc1C(=O)NC(C)C [compound 1287] | A (100) | A (100) | A (100) |
| Cc1cc(C(F)(F)C(F)(F)F)ccc1NC(=O)c1ccccc1C(=O)NC(C)CO (stereo not drawn) [compound 1294] | A (100) | A (100) | A (100) |
| COc1ccc(-c2ccccc2)cc1NC(=O)c1c(Cl)cccc1C(=O)NC(C)C [compound 1295] | A (100) | A (100) | A (100) |
| COc1ccc(-c2ccccc2)cc1NC(=O)c1cccc(Cl)c1C(=O)NC(C)C [compound 1296] | A (100) | A (100) | A (100) |
| CCCNC(=O)c1cccc(Cl)c1C(=O)Nc1cc(-c2ccccc2)ccc1OC [compound 1297] | A (100) | A (100) | A (100) |
| Cc1cc(C(F)(F)C(F)(F)F)ccc1NC(=O)c1cccc(Cl)c1C(=O)NC(C)CO (stereo not drawn) [compound 1298] | A (100) | A (100) | A (100) |
| CCC(CO)NC(=O)c1ccccc1C(=O)Nc1ccc(C(F)(F)C(F)(F)F)cc1C (stereo not drawn) [compound 1299] | A (100) | A (100) | A (100) |
| Cc1cc(C(F)(F)C(F)(F)F)ccc1NC(=O)c1cccc(I)c1C(=O)NC(C)CO (stereo not drawn) [compound 1300] | A (100) | A (100) | A (100) |
| CCCNC(=O)c1c(I)cccc1C(=O)Nc1ccc(C(F)(F)C(F)(F)F)cc1C [compound 1303] | A (100) | A (100) | A (100) |
| Cc1cc(C#CC(C)(C)C)ccc1NC(=O)c1cccc(I)c1C(=O)NC(C)C [compound 1305] | A (100) | A (100) | A (100) |
| Cc1cc(C(F)(F)C(F)(F)F)ccc1NC(=O)c1cccc(Cl)c1C(=O)NCc1ccccc1 [compound 1307] | A (100) | A (100) | A (100) |
| Cc1cc(C(F)(F)C(F)(F)F)ccc1NC(=O)c1cccc(Cl)c1C(=O)NCc1ccccc1Cl [compound 1309] | A (100) | A (100) | A (100) |
| CNC(=O)c1c(I)cccc1C(=O)Nc1ccc(C(F)(F)C(F)(F)F)cc1C [compound 1311] | A (100) | A (100) | A (100) |
| CCNC(=O)c1c(I)cccc1C(=O)Nc1ccc(C(F)(F)C(F)(F)F)cc1C [compound 1313] | A (100) | A (100) | A (100) |
